Here are results for 1 compound from US20220151979A1, “COMPOSITION FOR PREVENTION OR TREATMENT OF CARDIOVASCULAR AND METABOLIC DISEASE COMPRISING NORANHYDROICARITIN” (SEOUL NATIONAL UNIVERSITY HOSPITAL, priority 2019, published 2022).

SMILES strings stand for the structures.

One series has as its system HEK293T cells. Kind of series: MTT cell viability of HEK293T cells. It counts as cell-based, human. Particulars: 20 μM, 24 hours, relative to DMSO negative control. The protocol: In order to confirm the toxicity of noranhydroicaritin to cells, HEK293T (human embryonic kidneys) were treated with noranhydroicaritin at various concentrations, and the cell viability at each concentration of noranhydroicaritin was calculated through the MTT screening method.
Specifically, HEK293T cells were suspended in DMEM (Welgene Inc.) medium containing 10% fetal bovine serum at a concentration of 1×10^5 cells/mL, and 100 μL thereof was inoculated into each well of a 96-well plate. After 4 hours, the HEK293T cells in the well plate were treated with noranhydroicaritin samples at concentrations of 2.5 μM, 5 μM, 10 μM, and 20 μM. After incubation for 24 hours, 5 μL of MTT (5 mg/mL) was added to the well plate, and the cells were further incubated for 4 hours. Thereafter, the medium was removed, 100 μL of DMSO was added to the well plate, the reaction was conducted, and then the absorbance was measured at 570 nm. As a control, cholesterol synthesis inhibitors atorvastatin (Ato) and rosuvastatin (Ros) were used. The cell viability was calculated according to the mathematical formula as a value relative to 100% of the value for the negative control treated only with DMSO. The results are illustrated in FIG. 2.

The test system of series [1] is PCSK9. Kind of series: Immunoblot of PCSK9 in HepG2 cells, noranhydroicaritin and pravastatin, pitavastatin, fluvastatin or simvastatin (Table 1). It counts as cell-based, human. Particulars: noranhydroicaritin 20 μM singly, untreated = 1 ± 0.04. The protocol: The cells aliquoted by the method of Example 7 were treated with noranhydroicaritin or each statin (pravastatin, pitavastatin, fluvastatin, or simvastatin) singly or with noranhydroicaritin and a statin (pravastatin, pitavastatin, fluvastatin, or simvastatin) simultaneously, and the proteins were extracted. On an SDS-polyacrylamide gel, 30 μg of each protein was electrophoresed, and attached to a membrane, and then protein expression levels were confirmed using the respective antibodies: PCSK9 and LDLR.
A general note: Immunoblotting shows a protein as a band on a membrane.

In a further series the test system is IL-1B. Kind of series: Immunofluorescence of IL-1B in carotid artery, mouse arteriosclerosis model. It counts as in vivo. Particulars: 10 μg/g/day. The protocol: (§1) Carotid artery ligation was performed one week after injection of AAV-PCSK9 Virus (1×10^11 IFU/mL) and noranhydroicaritin (10 μg/g/day). After 3 weeks of ligation, it was confirmed whether the atherosclerosis model was completed, and gross plaque imaging and immunofluorescence were performed to confirm the arteriosclerosis inhibitory effect of noranhydroicaritin.
(§2) Furthermore, the arteriosclerosis inhibitory effect of noranhydroicaritin was confirmed using immunofluorescence. Specifically, a mouse carotid artery was obtained and fixed in 4% PFA for one day, and then prepared into a block. As the inflammatory response in blood vessels progresses, the arteriosclerosis worsens, and thus the marker […] of macrophages causing arteriosclerotic inflammatory response and TNF-α, IL-1B, and MCP-1, which are pro-inflammatory cytokines secreted when the inflammatory response occurs, were stained. Staining was performed using the antibody for each of CAP1(1:200), PCSK9(1:100), F4/80(1:100), TNF-α(1:100), […], and MCP-1(1:100), then imaging was performed using a confocal microscope, and […] was evaluated.

Series [2] deals with PCSK9. Kind of series: Immunofluorescence of PCSK9 in carotid artery, mouse arteriosclerosis model. It counts as in vivo. The note with it: 10 μg/g/day, compared to control. The procedure: as §1, §2

Broadly, the cell viability is the share of living cells, or the viability signal relative to a control. A high value points to less harm to the cells. `CC(C)=CCc1c(O)cc(O)c2c(=O)c(O)c(-c3ccc(O)cc3)oc12` [Noranhydroicaritin, noranhydroicaritin] displayed a cell viability in the series on HEK293T cells not below 90%. Also, the PCSK9 in the series with PCSK9 [1] came to 0.34 ± 0.02. Besides, the “expression of IL-1B (immunofluorescence)” value in the series on IL-1B is “decreased”. In addition, the “expression of PCSK9 (immunofluorescence)” value with PCSK9 [2] was “significantly decreased”.
